Values of other authors as cited in patent publication US20240358747A1, “SOME GEL FORMULATIONS THAT PROVIDE WOUND HEALING AND THE SYNTHESIS OF DYSPROSIUM ERBIUM BORATE TRIHYDRATE (Dy0.5Er0.5BO3.3H2O) COMPOUND USED IN THESE FORMULATIONS” (VERTRATECH KIMYA SANAYI VE TICARET LIMITED SIRKETI, priority 2021, published 2024).

Conditions: topical application of 3% boric acid to wounds

## OB(O)O [boric acid]
  length of stay in intensive care units: reduces the length of stay in intensive care units three times
